# Laboratory results from ChEMBL document CHEMBL3390834, “Development of second generation epigenetic agents” (Medchemcomm, 2012).
# Legend:
# [1] = molecular target: T1, Lysine-specific demethylase 4E (Homo sapiens, UniProt B2RXH2)
# T1 sequence (B2RXH2 whole entry): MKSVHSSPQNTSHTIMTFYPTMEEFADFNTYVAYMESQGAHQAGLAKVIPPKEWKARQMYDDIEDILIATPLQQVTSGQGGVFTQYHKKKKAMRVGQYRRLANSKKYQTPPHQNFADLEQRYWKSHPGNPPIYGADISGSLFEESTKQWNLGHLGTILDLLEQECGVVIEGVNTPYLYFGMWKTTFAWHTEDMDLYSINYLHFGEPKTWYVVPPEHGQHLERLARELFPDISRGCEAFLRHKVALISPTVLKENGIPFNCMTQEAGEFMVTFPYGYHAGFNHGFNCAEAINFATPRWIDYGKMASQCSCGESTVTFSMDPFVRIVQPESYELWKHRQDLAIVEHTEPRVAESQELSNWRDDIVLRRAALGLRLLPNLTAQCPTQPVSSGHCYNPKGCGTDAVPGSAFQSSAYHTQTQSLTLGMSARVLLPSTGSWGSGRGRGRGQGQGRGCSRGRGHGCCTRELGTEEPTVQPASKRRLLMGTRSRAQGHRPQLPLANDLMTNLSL
# Description: Inhibition of N-terminal His-6-tagged human JMJD2E (1 to 337 residues) expressed in Escherichia coli by MALDI-TOF/MS analysis
# [2] = molecular target: Protein arginine N-methyltransferase 1 (Homo sapiens, UniProt Q99873); assay: Inhibition of human recombinant PRMT-1 using Npl3p as substrate
# Protein arginine N-methyltransferase 1, sequence (Q99873 whole entry): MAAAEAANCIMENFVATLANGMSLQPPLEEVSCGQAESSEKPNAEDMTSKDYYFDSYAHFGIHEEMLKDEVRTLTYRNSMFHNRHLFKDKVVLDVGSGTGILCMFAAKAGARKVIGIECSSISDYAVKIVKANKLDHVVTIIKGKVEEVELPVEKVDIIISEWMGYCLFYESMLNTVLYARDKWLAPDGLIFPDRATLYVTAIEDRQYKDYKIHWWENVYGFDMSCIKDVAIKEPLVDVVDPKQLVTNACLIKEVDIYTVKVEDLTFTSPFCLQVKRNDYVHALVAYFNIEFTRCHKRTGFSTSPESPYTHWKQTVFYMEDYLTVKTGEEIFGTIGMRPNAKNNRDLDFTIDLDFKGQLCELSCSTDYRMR
# Homo sapiens [3] = species on record: Homo sapiens; assay: Selectivity ratio of IC50 for SET7 (unknown origin) to IC50 for human recombinant PRMT-2
# Homo sapiens [4] = species on record: Homo sapiens; assay: Selectivity ratio of IC50 for human CARM-1 to IC50 for human recombinant PRMT-1
# [5] = molecular target: T1, Lysine-specific demethylase 4E; assay: Binding affinity to JMJD2E (unknown origin)
# Egl nine homolog 1 = Egl nine homolog 1 (Homo sapiens, UniProt Q9GZT9); assay: Inhibition of PHD-2 (unknown origin)
# Egl nine homolog 1, sequence (Q9GZT9 whole entry): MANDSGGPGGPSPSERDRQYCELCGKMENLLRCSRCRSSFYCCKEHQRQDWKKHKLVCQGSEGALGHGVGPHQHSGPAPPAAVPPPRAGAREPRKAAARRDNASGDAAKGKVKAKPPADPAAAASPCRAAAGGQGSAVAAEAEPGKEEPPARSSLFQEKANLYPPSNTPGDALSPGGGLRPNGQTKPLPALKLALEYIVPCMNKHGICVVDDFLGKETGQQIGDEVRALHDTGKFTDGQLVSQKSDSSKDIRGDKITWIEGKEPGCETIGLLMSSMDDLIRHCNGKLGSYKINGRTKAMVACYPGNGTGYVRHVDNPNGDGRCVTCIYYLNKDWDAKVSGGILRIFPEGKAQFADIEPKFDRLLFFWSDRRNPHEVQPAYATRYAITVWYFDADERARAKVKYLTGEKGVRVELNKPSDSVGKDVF
# [6] = molecular target: Lysine-specific demethylase 2A (Homo sapiens, UniProt Q9Y2K7); assay: Inhibition of FBXL11 (unknown origin) expressed in HEK293 cells; assay type: cell-based
# Lysine-specific demethylase 2A, sequence (Q9Y2K7 whole entry): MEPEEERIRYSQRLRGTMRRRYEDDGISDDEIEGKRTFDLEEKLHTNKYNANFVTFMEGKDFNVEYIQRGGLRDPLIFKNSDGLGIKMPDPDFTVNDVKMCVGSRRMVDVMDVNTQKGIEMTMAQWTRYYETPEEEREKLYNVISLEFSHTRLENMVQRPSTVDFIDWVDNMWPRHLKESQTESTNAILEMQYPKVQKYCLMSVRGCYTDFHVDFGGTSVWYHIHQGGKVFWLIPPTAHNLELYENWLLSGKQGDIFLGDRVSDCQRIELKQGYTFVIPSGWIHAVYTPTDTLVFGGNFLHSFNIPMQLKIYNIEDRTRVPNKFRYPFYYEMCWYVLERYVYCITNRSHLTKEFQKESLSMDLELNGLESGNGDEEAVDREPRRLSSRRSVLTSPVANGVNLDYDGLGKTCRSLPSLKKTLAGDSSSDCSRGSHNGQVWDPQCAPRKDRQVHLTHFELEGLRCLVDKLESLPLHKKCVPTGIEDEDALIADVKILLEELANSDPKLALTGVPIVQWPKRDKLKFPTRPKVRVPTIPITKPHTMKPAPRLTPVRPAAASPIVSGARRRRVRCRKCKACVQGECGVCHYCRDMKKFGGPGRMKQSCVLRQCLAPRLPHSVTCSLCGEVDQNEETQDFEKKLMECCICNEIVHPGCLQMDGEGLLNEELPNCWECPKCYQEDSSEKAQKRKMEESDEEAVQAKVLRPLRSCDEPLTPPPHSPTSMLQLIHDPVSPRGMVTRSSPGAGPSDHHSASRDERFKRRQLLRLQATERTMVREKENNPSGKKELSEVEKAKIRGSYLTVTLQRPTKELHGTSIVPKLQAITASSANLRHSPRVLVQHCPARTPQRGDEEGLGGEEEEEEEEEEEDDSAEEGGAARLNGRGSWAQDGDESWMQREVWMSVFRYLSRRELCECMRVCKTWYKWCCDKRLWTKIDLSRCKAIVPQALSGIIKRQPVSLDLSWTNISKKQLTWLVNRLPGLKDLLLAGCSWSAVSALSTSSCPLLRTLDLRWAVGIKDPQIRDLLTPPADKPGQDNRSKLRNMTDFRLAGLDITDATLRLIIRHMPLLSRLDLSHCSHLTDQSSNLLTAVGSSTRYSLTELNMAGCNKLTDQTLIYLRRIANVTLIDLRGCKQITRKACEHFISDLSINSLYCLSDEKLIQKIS
# [7] = Inhibition of yeast Sir2p HAD activity using [3H]-acetylated histone H4 as substrate assessed as release of free [3H]-acetate after 16 hrs; design: species or system Saccharomyces cerevisiae
# [8] = Half life in C57BL/6J mouse at 10 mg/kg, po; assay type: ADME, organism-based; design: dose 10 mg/kg, route oral; settings: in vivo
# [9] = molecular target: Histone acetyltransferase KAT2A (Homo sapiens, UniProt Q92830); assay: Inhibition of human GCN5
# CREB-binding protein = CREB-binding protein (Homo sapiens, UniProt Q92793); assay: Inhibition of CBP (unknown origin)
# [10] = molecular target: T2, Histone acetyltransferase p300 (Homo sapiens, UniProt Q09472); assay: Inhibition of recombinant p300 (unknown origin) expressed in baculovirus expression system using [3H]acetyl-CoA as substrate preincubated for 10 mins followed by substrate addition measured after 10 mins by liquid scintillation counting analysis
# T2 sequence (Q09472 whole entry): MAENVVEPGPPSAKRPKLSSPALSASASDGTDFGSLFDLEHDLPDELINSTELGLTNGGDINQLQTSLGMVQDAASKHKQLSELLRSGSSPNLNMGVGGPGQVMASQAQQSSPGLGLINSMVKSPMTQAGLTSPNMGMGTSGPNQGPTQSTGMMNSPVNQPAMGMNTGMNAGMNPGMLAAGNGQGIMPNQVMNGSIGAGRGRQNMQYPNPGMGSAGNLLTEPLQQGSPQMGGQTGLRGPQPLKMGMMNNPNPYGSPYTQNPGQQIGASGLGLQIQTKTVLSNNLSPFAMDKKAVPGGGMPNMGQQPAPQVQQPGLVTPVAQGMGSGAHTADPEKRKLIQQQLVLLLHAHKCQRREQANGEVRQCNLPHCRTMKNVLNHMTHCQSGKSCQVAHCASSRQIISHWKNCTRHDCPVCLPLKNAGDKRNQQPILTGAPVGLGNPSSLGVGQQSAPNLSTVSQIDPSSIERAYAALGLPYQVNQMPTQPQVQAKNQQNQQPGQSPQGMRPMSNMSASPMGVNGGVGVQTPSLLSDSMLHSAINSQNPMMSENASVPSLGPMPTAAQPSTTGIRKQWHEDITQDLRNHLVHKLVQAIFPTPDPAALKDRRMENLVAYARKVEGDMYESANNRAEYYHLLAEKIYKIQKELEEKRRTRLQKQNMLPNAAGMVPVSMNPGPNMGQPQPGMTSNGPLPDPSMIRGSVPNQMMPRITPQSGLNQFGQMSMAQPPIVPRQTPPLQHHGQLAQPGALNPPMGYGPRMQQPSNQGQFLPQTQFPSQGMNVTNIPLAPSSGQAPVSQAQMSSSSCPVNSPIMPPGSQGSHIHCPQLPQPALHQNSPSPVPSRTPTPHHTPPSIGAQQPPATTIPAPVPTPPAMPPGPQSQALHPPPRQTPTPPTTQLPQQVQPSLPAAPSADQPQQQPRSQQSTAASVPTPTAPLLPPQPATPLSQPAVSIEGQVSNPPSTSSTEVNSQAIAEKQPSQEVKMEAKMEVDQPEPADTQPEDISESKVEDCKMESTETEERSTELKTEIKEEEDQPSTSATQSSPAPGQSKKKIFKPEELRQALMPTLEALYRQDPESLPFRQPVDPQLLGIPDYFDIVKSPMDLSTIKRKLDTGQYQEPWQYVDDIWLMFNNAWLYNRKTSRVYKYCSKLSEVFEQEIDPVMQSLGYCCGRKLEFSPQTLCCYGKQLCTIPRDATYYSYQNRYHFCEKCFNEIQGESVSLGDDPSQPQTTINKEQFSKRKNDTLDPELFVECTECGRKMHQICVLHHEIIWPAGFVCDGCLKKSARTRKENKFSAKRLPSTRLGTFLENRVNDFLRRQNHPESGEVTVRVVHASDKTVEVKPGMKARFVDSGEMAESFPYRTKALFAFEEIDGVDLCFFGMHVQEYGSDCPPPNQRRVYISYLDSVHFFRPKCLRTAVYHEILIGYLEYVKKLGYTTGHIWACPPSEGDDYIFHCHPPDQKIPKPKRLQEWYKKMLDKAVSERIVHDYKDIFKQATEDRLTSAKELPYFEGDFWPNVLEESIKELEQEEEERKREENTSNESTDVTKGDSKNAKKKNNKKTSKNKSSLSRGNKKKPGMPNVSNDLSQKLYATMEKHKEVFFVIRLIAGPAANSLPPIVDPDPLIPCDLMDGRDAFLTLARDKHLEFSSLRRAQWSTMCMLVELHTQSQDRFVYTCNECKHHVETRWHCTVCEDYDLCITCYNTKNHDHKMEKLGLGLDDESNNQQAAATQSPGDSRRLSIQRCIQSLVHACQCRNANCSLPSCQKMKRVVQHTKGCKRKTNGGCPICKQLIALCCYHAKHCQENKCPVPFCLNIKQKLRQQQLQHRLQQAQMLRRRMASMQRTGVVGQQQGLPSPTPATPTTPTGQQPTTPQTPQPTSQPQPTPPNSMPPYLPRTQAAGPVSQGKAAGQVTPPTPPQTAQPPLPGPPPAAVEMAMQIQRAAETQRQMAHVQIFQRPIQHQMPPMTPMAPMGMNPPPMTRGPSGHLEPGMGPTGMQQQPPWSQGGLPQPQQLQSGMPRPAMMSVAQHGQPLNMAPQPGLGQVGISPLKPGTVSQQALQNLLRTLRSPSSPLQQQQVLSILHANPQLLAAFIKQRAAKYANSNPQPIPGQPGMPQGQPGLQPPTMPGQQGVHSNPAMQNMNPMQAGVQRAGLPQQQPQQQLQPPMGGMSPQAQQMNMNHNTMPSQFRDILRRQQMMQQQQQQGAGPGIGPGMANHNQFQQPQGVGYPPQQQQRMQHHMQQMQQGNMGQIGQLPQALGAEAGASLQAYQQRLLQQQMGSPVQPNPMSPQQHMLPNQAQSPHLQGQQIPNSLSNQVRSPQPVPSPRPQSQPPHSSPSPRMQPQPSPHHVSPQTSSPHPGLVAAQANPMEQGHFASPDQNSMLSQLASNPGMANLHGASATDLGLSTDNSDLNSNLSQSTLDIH
# [11] = molecular target: T2, Histone acetyltransferase p300; assay: Inhibition of p300 (unknown origin)
# [12] = molecular target: T3, Lysine-specific histone demethylase 1A (Homo sapiens, UniProt O60341); assay: Inhibition of N-terminal His-6-tagged full length human LSD-1 expressed in Escherichia coli BL21 (DE3) using H3K4me2 peptide as substrate by Western blotting analysis
# [13] = molecular target: Lysine-specific demethylase 4A (Homo sapiens, UniProt O75164); assay: Inhibition of JMJD2A (unknown origin) using ARK(me3)STGGK peptide as substrate preincubated for 1 to 30 mins followed by substrate addition by MALDI-TOF/MS analysis
# [14] = molecular target: T3, Lysine-specific histone demethylase 1A; assay: Inhibition of N-terminal His-6-tagged full length human LSD-1 expressed in Escherichia coli BL21 (DE3) using H3K4me2 peptide as substrate at 1 uM by Western blotting analysis relative to control
# [15] = molecular target: T4, Histone-arginine methyltransferase CARM1 (Homo sapiens, UniProt Q86X55); assay: Inhibition of full-length GST-tagged CARM-1 (unknown origin) expressed in Spodoptera frugiperda cells using histone H3 and tritiated-SAM as substrate
# T4 sequence (Q86X55 whole entry): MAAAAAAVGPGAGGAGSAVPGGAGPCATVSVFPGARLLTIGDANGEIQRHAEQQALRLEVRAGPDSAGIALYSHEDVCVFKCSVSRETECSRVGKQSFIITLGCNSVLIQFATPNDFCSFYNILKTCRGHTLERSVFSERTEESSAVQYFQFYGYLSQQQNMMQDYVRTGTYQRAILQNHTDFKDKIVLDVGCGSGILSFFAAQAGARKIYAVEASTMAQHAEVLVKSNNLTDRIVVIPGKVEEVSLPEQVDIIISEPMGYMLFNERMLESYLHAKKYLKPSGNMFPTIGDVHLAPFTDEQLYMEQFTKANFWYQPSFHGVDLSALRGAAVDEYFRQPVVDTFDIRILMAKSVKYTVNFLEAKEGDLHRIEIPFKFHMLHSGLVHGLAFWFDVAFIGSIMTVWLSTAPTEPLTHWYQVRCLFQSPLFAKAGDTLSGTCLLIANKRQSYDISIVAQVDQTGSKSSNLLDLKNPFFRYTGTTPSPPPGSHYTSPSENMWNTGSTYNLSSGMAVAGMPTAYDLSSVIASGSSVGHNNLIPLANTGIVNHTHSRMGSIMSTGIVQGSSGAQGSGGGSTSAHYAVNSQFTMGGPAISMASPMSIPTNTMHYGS
# Saccharomyces cerevisiae [16] = assay: Selectivity for yeast Hst1p over yeast Sir2p
# [17] = molecular target: Histone-lysine N-methyltransferase EHMT2 (Homo sapiens, UniProt Q96KQ7)
# Description: Inhibition of recombinant GST-tagged G9a (685 to 1000 amino acids) (unknown origin) expressed in Escherichia coli BL21 using biotinylated histone H3 peptide as substrate by DELFIA
# [18] = molecular target: Histone-lysine N-methyltransferase SUV39H1 (Homo sapiens, UniProt O43463); assay: Inhibition of SUV39H1 (unknown origin) by DELFIA
# [19] = Inhibition of HAT isolated from human HeLa cell nuclear extracts using biotinylated histone H4 peptide as substrate after 8 mins
# Homo sapiens [20] = species on record: Homo sapiens; assay: Selectivity ratio of IC50 for MAO-B (unknown origin) to IC50 for LSD-1 (unknown origin)
# [21] = molecular target: T3, Lysine-specific histone demethylase 1A; assay: Inhibition of LSD-1 (unknown origin)
# Histone deacetylase = assay: Inhibition of HDAC isolated from human HeLa cell nuclear extracts using Fluor de Lys as substrate after 30 mins by fluorescence assay; assay type: protein assay
# [22] = Inhibition of DIM-5 (unknown origin)
# [23] = molecular target: T5, NAD-dependent protein deacetylase sirtuin-1 (Homo sapiens, UniProt Q96EB6); assay: Inhibition of recombinant human GST-tagged SIRT-1 using ZMAL as substrate after 4 hrs by homogeneous fluorescent deacetylase assay
# T5 sequence (Q96EB6 whole entry): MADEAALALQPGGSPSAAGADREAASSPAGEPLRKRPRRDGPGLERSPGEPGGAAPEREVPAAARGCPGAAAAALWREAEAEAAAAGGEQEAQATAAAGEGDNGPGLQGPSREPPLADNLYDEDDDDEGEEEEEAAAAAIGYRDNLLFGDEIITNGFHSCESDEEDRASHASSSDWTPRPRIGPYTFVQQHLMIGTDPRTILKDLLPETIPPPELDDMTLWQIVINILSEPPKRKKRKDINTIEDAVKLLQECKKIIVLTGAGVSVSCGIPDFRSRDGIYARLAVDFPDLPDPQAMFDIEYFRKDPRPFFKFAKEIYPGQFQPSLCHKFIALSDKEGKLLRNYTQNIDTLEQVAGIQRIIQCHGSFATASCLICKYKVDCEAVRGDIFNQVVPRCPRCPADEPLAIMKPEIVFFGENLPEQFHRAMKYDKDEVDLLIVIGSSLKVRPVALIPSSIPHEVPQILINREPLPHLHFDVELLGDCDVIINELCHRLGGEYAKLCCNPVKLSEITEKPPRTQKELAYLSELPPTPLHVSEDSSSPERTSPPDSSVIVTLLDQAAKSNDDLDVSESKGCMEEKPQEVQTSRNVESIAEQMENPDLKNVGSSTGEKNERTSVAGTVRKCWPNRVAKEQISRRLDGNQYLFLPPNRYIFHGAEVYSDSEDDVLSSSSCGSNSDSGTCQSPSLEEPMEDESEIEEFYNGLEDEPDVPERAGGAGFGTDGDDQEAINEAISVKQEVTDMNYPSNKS
# [24] = molecular target: T6, NAD-dependent protein deacetylase sirtuin-2 (Homo sapiens, UniProt Q8IXJ6); assay: Inhibition of human SIRT-2 using fluor de Lys as substrate after 2 hrs by fluorescence assay
# T6 sequence (Q8IXJ6 whole entry): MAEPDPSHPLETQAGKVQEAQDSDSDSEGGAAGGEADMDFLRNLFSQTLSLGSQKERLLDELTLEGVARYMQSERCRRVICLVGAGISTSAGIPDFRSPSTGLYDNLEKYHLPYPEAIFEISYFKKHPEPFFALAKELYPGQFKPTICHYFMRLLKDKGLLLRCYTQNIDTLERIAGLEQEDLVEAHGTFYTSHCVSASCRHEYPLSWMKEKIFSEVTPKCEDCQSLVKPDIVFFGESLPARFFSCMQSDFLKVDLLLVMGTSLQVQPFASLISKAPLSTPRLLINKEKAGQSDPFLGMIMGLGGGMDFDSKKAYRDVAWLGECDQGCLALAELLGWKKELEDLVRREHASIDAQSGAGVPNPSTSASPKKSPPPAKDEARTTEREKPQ
# [25] = molecular target: T6, NAD-dependent protein deacetylase sirtuin-2
# Description: Inhibition of recombinant human N-terminal His6-tagged SIRT-2 using ZMAL as substrate after 4 hrs by homogeneous fluorescent deacetylase assay
# Saccharomyces cerevisiae [26] = assay: Selectivity for yeast Sir2p over yeast Hst1p
# [27] = molecular target: T3, Lysine-specific histone demethylase 1A; assay: Inhibition of human LSD-1 by fluorescence-based assay
# [28] = molecular target: T6, NAD-dependent protein deacetylase sirtuin-2; assay: Inhibition of SIRT-2 (unknown origin)
# Histone deacetylase 1 = Histone deacetylase 1 (Homo sapiens, UniProt Q13547)
# Description: Inhibition of HDAC-1 (unknown origin) using (FAM)-labeled acetylated peptide as substrate after 17 hrs by fluorescence assay
# [29] = Growth inhibition of human KYSE-150 cells after 48 hrs; assay type: functional; settings: KYSE-150, 48 h
# [30] = molecular target: Histone acetyltransferase KAT2B (Homo sapiens, UniProt Q92831); assay: Inhibition of FLAG epitope-tagged recombinant human PCAF expressed in baculovirus infected insect Sf21 cells using [3H]acetyl-CoA as substrate preincubated for 10 mins followed by substrate addition measured after 10 mins by liquid scintillation counting analysis
# [31] = molecular target: T2, Histone acetyltransferase p300; assay: biochemical
# Description: (§1) Inhibition of His6-tagged recombinant full length p300 (unknown origin) expressed in baculovirus infected insect Sf21 cells using [3H]acetyl-CoA as substrate preincubated for 10 mins followed by substrate addition measured after 10 mins by liquid scintillation counting analysis
# [32] = molecular target: T4, Histone-arginine methyltransferase CARM1; assay: Inhibition of CARM-1 (unknown origin) using Histone H3 Arg-17 as substrate
# [33] = molecular target: T2, Histone acetyltransferase p300
# Description: as §1
# [34] = molecular target: T6, NAD-dependent protein deacetylase sirtuin-2; assay: Inhibition of human SIRT-2
# [35] = molecular target: T5, NAD-dependent protein deacetylase sirtuin-1; assay: Inhibition of human SIRT-1
# [36] = molecular target: T2, Histone acetyltransferase p300; assay: Binding affinity to p300 (unknown origin) by ITC analysis
# [37] = molecular target: T2, Histone acetyltransferase p300; assay: Inhibition of recombinant full length p300 (unknown origin) expressed in baculovirus infected insect Sf21 cells using [3H]acetyl-CoA as substrate
structure (smiles),measurement,setting,value
NCCc1ccc(O)c(O)c1 [DOPAMINE],IC50,[1],3 µM
O=C(/C=C/c1ccc(O)c(Br)c1)/C=C/c1cc(Br)c(O)c(Br)c1,IC50,[2],3 µM
same,Ratio IC50,Homo sapiens [3],10
same,Ratio IC50,Homo sapiens [4],30
[N-]=[N+]=Nc1ccc(C(=O)N[C@@H](CCCCNC(=O)COCCOCCNC(=O)CCCC[C@@H]2SC[C@@H]3NC(=O)N[C@@H]32)C(=O)NCCCNC(=O)c2ccc(O)c3ncccc23)cc1,Kd,[5],58.4 µM
same,IC50,Egl nine homolog 1,41.8 µM
same,IC50,[6],9.1 µM
O=C1CCc2c(ccc3ccccc23)O1 [SPLITOMICIN],IC50,[7],60 µM
NC(=O)C1CCCc2c1[nH]c1ccc(Cl)cc21 (stereo not given),half-life,[8],2 h
C=C1C(=O)O[C@@H](CCC)[C@@H]1C(=O)O,IC50,[9],100 µM
same,IC50,CREB-binding protein,500 µM
COc1cc(C(=O)C2=C3OC(C)(C)[C@@H](CC=C(C)C)C[C@@]34C[C@@H](CC=C(C)C)C(C)(C)[C@@](CC=C(C)C)(C2=O)C4=O)ccc1O,IC50,[10],5 µM
CC(=O)N[C@@H](CCCCNC(=O)CSCCNC(=O)CCNC(=O)[C@H](O)C(C)(C)COP(=O)(O)OP(=O)(O)OC[C@H]1O[C@@H](n2cnc3c(N)ncnc32)[C@H](O)[C@@H]1OP(=O)(O)O)C(N)=O,Ki,[11],0.019 µM
CCNCCCCCCCCCCCCCCCCNC/C=C/CNCCCCCCCCCCCCCCCCNCC,IC50,[12],5 µM
CCNC(=S)SSC(=S)NCC,IC50,[13],15.3 µM
N=C(NCCCNCCCCCCCNCCCNC(=N)NC(=N)NCCC(c1ccccc1)c1ccccc1)NC(=N)NCCC(c1ccccc1)c1ccccc1,inhibition,[14],> 50%
CNCCN1CCC(c2ccc3[nH]c(-c4ccccc4OC)c(F)c3c2)CC1,IC50,[15],0.03 µM
C/N=C(\NC)NCCCNCCCNCCCN/C(=N/C)NC,inhibition,[14],> 50%
Oc1ccc(C2CNCCc3c2cc(O)c(O)c3Cl)cc1 (stereo not given) [FENOLDOPAM],IC50,[1],3 µM
O=c1ccc2c(ccc3ccccc32)o1,Selectivity ratio,Saccharomyces cerevisiae [16],5
COc1ccc(C(=O)Oc2ccc(CCn3c(NC(=O)c4ccc(C(F)(F)F)cc4)nc4cc(C(=O)O)ccc43)cc2)cc1,IC50,[17],4.7 µM
same,IC50,[18],1.1 µM
CCCCCCCCCCCCCC(Oc1cccc(OCc2ccccc2)c1)C(=O)O (stereo not given),IC50,[19],6 µM
NC1CC1c1c(F)cc(F)cc1OCc1ccccc1 (stereo not given),Ratio IC50,Homo sapiens [20],> 250
same,IC50,[21],0.99 µM
O=C(CSSCC(=O)c1ccc(Br)cc1)c1ccc(Br)cc1,IC50,Histone deacetylase,0.135 µM
CN1C(=O)[C@@]23C[C@]4([C@]56C[C@@]78SS[C@@](CO)(C(=O)N7[C@H]5Nc5ccccc56)N(C)C8=O)c5ccccc5N[C@@H]4N2C(=O)[C@]1(CO)SS3 [CHAETOCIN],IC50,[22],3 µM
O=C1NC(=S)NC(=O)C1=Cc1cc2ccccc2[nH]1,IC50,[23],5.9 µM
CCCCCCCCCCC[C@]1(CO)CCCC(=O)O[C@](CO)(CCCCCCCCCCC)CCCC(=O)O1,IC50,[24],0.176 µM
same,IC50,[25],2 µM
O=C1CCc2c(c(OCc3ccccc3)cc3ccccc23)O1,Selectivity ratio,Saccharomyces cerevisiae [26],13
O=C(O)/C=C/C(=O)N(O)CCCCNCc1ccc(COC(=O)Nc2cccc3ccccc23)cc1,IC50,[27],620 µM
NC(=O)c1ccccc1Nc1ccccc1 [ANILINOBENZAMIDE],IC50,[28],74 µM
Nc1ccccc1NC(=O)CCCCCCC(=O)Nc1cccc(-c2cn(-c3ccccc3)nn2)c1,IC50,Histone deacetylase 1,> 30 µM
COC(=O)/C=C/C(=O)N(O)CCCCNCc1ccc(COC(=O)Nc2cccc3ccccc23)cc1,GI50,[29],5.1 µM
CCCCCCCCCCCCCCCc1cccc(O)c1C(=O)O [ANACARDIC ACID],IC50,[30],5 µM
same,IC50,[31],8.5 µM
O=c1oc2c(O)c(O)cc3c(=O)oc4c(O)c(O)cc1c4c23 [ELLAGIC ACID],IC50,[32],25 µM
C[C@](N)(Cc1ccc(O)c(O)c1)C(=O)O [METHYLDOPA],IC50,[1],3 µM
C=C(C)[C@@H](CC=C(C)C)C[C@@]12C[C@@H](CC=C(C)C)C(C)(C)[C@@](CC=C(C)C)(C(=O)C(C(=O)c3ccc(O)c(O)c3)=C1O)C2=O [GARCINOL],IC50,[33],7 µM
C[C@H](N)C(=O)NCc1cccc(-n2nc(C(F)(F)F)cc2-c2nnc(-c3cccc4[nH]ccc34)o2)c1,IC50,[15],0.027 µM
CC(C)=CCC/C(C)=C/C[C@@H]1C[C@@]2(CC=C(C)C)C(=O)[C@](CC=C(C)C)(C(=O)C(C(=O)c3ccc(O)c(O)c3)=C2O)[C@@]1(C)CCC=C(C)C,IC50,[34],22 µM
same,IC50,[35],9 µM
CC1=CC(=O)c2c(O)cccc2C1=O [PLUMBAGIN],Kd,[36],2 µM
same,IC50,[37],2 µM
